Experimental data as given in US6861395B2, “Method and compositions for inhibiting the growth of microorganisms in metal working fluids” (Arch UK Biocides Limited, priority 2000, dated 2005).

How the values were obtained:
[1] = Temperature stability of biocide in synthetic metal working fluid (storage at 50° C., HPLC); type: physicochemical; conditions: Synthetic metal working fluid Trim C111A
Protocol: The biocides shown in Table 1 were added to Trim C111A (ex. Master Chemical Corporation, USA, a synthetic water miscible cutting and grinding fluid used as coolant and lubricant in metal removal processes). […] The metal working fluid was then stored at 50° C. for 45 days.

[2] = Temperature stability of biocide in semi-synthetic metal working fluid (storage at 50° C., HPLC); conditions: Semi-synthetic metal working fluid Quaker fluid No. 12717
Protocol: The biocides shown in Table 1 were added to Trim C111A (ex. Master Chemical Corporation, USA, a synthetic water miscible cutting and grinding fluid used as coolant and lubricant in metal removal processes). The initial concentration of the biocide in the metal working fluid is shown in the third column of Table 1. The metal working fluid was then stored at 50° C. for 45 days.
The concentration of biocide remaining after storage was measured using reverse phase high performance liquid chromatography (HPLC) after initial sample preparation. In the case of 2-n-butyl-benzisothiazolin-3-one, 2-n-octyl-isothiazolin-3-one and 3-iodo-2-propynyl-N-butylcarbamate sample preparation involved solvent extraction of the active from the metal working fluid. For sodium pyrithione, initial sample preparation was derivatisation to produce a compound readily detectable by HPLC.
The stability of the biocides shown in Tables 2 and 3 in semi-synthetic and soluble oil metal working fluids was assessed using the same method described above in Example 1.

[3] = tested on: Yeast and Fungi (Fusarium solani, Penicillium sp., Acremonium strictum, Geotrichum candidum); test: Microbial resistance test based on ASTM E686-91, fungal contamination in synthetic metal working fluid; type: cell-based; conditions: for Fungal Contamination after (days) 10: 10 days; for Fungal Contamination after (days) 31: 31 days; for Fungal Contamination after (days) 87: 87 days; for Fungal Contamination after (days) 110: 110 days; for all read-outs here: key: +++ indicates confluent growth; ++ indicates moderate growth; + indicates slight growth; − indicates no growth
Protocol: (§1) The following microbial strains were studied:
(§2) The biocides shown in Tables 4, 5 and 6 were added to the metal working fluid shown in each table and assessed for microbial resistance by a method based on ASTM E686-91: Standard Test Method for Evaluation of Antimicrobial Agents in Aqueous Metal Working Fluids as described below.
(§3) The metal working fluids used in the assessment were the same as those used in Examples 1 to 7.
(§4) Bacteria and fungi were gradually acclimatised to the metal working fluid. The organisms were grown up in biocide free metal working fluid (containing 50% (v/v) minimal broth) with aeration at 25° C. until microbial count reached 10^9 cfu/ml. Every 7 days each micro-organism was subcultured into 90 ml (10 ml inoculum) and re-incubated. Subculturing was done for a minimum of three cycles before use.
(§5) To 1I French square bottles, 900 ml of metal working fluid was added at use concentration (diluted to 5% with water of 125 ppm calcium hardness). 100 ml of inoculum was added and mixed (100 ml of total quantity was removed and discarded). The metal working fluid was allowed to sit undisturbed for 64 hours. The metal working fluid was mixed and sampled for microbiological testing.
(§6) Bacteria and fungi were enumerated by streaking an aliquot onto nutrient or malt agar as appropriate. The mixtures were aerated using capillary tubing to bubble air into the bottom of the bottle (introduced by means of a multi-valve air manifold). Antifoam was also added. After 5 days, the aeration was stopped and volume replaced with sterile distilled water. The mixture was allowed to sit for 64 hours and then mixed. 10 ml of inoculum was used to re-inoculate and all losses were replaced with Biocide containing metal working fluid. The pH of the metal working fluid was measured at start of test and every 7 days. […] Aeration was resumed and the regime repeated for a minimum of 6 weeks or until failure.

[4] = tested on: Yeast and Fungi (Fusarium solani, Penicillium sp., Acremonium strictum, Geotrichum candidum); test: Microbial resistance test based on ASTM E686-91, fungal contamination in semi synthetic metal working fluid; type: cell-based; conditions: for Fungal Contamination after (days) 10: 10 days; for Fungal Contamination after (days) 31: 31 days; for Fungal Contamination after (days) 87: 87 days; for Fungal Contamination after (days) 110: 110 days; for all read-outs here: key: +++ indicates confluent growth; ++ indicates moderate growth; + indicates slight growth; − indicates no growth
Protocol: as §1, §2, §3, §4, §5, §6

[5] = Temperature stability of biocide in soluble oil metal working fluid (storage at 50° C., HPLC)
[6] = tested on: Fusarium solani (ATCC 58877/IMI 314228); test: MIC by doubling dilution in microtitre plate; type: cell-based
Protocol: The fungus Fusarium solani (ATCC 58877/IMI 314228) was grown in malt agar for 7-14 days at 25° C. to give a mycelial mat and the spores harvested from the surface using physiological saline to give a suspension containing about 10^6 fungal spores/ml. This was then diluted with malt broth to give a spore suspension containing 10^4 spores/ml. A 100 μl aliquot of this spore suspension was added to each well of a microtitre plate except for the first well which contained 180 μl.
A 20 μl aliquot of this solution was added to the first well of the microtitre plate and thoroughly mixed. 100 μl was withdrawn from the first well, added to the second well and mixed.

Row | SMILES | Fungal Contamination after (days) 10 ([3]; Conc. (a.i.) 75 ppm) | Fungal Contamination after (days) 31 ([3]; Conc. (a.i.) 75 ppm) | Fungal Contamination after (days) 87 ([3]; Conc. (a.i.) 75 ppm) | Fungal Contamination after (days) 110 ([3]; Conc. (a.i.) 75 ppm) | Fungal Contamination after (days) 10 ([4]; 75 ppm) | Fungal Contamination after (days) 31 ([4]; 75 ppm) | Fungal Contamination after (days) 87 ([4]; 75 ppm) | Fungal Contamination after (days) 110 ([4]; 75 ppm) | Fungal Contamination after (days) 10 ([3]; Conc. (a.i.) 150 ppm) | Fungal Contamination after (days) 31 ([3]; Conc. (a.i.) 150 ppm) | Fungal Contamination after (days) 87 ([3]; Conc. (a.i.) 150 ppm) | Fungal Contamination after (days) 110 ([3]; Conc. (a.i.) 150 ppm) | Fungal Contamination after (days) 10 ([4]; 150 ppm) | Fungal Contamination after (days) 31 ([4]; 150 ppm) | Fungal Contamination after (days) 87 ([4]; 150 ppm) | Fungal Contamination after (days) 110 ([4]; 150 ppm) | also measured
1 | CCCCCCCCn1sccc1=O [OIT, 2-n-octyl-isothiazolin-3-one] |  |  |  |  |  |  |  |  |  |  |  |  |  |  |  |  | % Remaining after storage at 50° C. for 45 days ([1]; initial concentration 2000 ppm): 0%; % Remaining after storage at 50° C. for 45 days ([2]; initial concentration 2000 ppm): 0%
2 | CCCCNC(=O)OCC#CI [IPBC, 3-iodo-2-propynyl-N-n-butyl carbamate, reference compound] | − | − | − | − | − | − | − | − |  |  |  |  |  |  |  |  | % Remaining after storage at 50° C. for 45 days ([2]; initial concentration 5000 ppm): 0%; % Remaining after storage at 50° C. for 45 days ([5]; initial concentration 5000 ppm): 13%
3 | [Na].[O-][n+]1ccccc1S [Sodium Omadine, sodium pyridine-2-thiol-1-oxide, reference compound] |  |  |  |  |  |  |  |  | ++ | +++ | +++ | +++ | − | − | + | + | % Remaining after storage at 50° C. for 45 days ([1]; initial concentration 2500 ppm): 0%; % Remaining after storage at 50° C. for 45 days ([2]; initial concentration 2500 ppm): 0%; MIC ([6]; ATCC58877, 120 h, read-out: MIC values): 18.5 µg/mL; % Remaining after storage at 50° C. for 45 days ([5]; initial concentration 2500 ppm): 0%
4 | CCCCn1sc2ccccc2c1=O [BBIT, 2-n-butyl-1,2-benzisothiazolin-3-one] | − | − | − | − | − | − | + | + | − | − | − | − | − | − | − | − | Fungal Contamination after (days) 10 ([3]; Conc. (a.i.) 100 ppm): −; Fungal Contamination after (days) 31 ([3]; Conc. (a.i.) 100 ppm): −; Fungal Contamination after (days) 87 ([3]; Conc. (a.i.) 100 ppm): −; Fungal Contamination after (days) 110 ([3]; Conc. (a.i.) 100 ppm): −; Fungal Contamination after (days) 10 ([4]; 100 ppm): −; Fungal Contamination after (days) 31 ([4]; 100 ppm): −; Fungal Contamination after (days) 87 ([4]; 100 ppm): −; Fungal Contamination after (days) 110 ([4]; 100 ppm): −; MIC values ([6]; malt broth, visual inspection after 5 days at 25° C.): 6.4 ppm
